Inhibition and IC50 data for 13 compounds are collected here from patent US10017492B2 (KANGPU BIOPHARMACEUTICALS, LTD., priority 2014, dated 2018).

The structures appear in SMILES notation. Some results are limits rather than exact numbers.

Assay [1] deals with TNF-α. Kind of assay: TNF-α activity inhibiting assay (LPS-stimulated peripheral blood, ELISA). The settings on record: Homo sapiens, compound 100 nM, diluted peripheral blood of healthy volunteers, LPS 10 ng/mL, 6 hours, read-out: Inhibitory Rate on TNF-α (%). It counts as cell-based, human. The procedure: TNF-α Activity Inhibiting Assay
Peripheral blood from healthy volunteers was collected and collected with EDTA anticoagulant tubes. After being diluted 5-fold with 1640 medium (Gibco, catalog number 11875-093, USA), the blood was added to 96-well cell culture plates (Costar, catalog number 3599, USA) and then treated with 10 μL solution of the compound of general formula (I) of the present invention in DMSO (Sigma, catalog number D2650, USA). The final concentration of the compound was 100 nM, and the final concentration of DMSO was 0.2%. After incubation for 60 minutes in an incubator at 37° C. under 5% CO2, 10 μL LPS (Sigma, catalog number L-2880, USA) was added to the reaction system, and the final concentration was 10 ng/mL. After further culturing for 6 hours in the incubator at 37° C. under 5% CO2, the supernatant was collected. The content of TNF-α was determined by ELISA (BD Biosciences, catalog number 555212, USA). Absorbance was detected at OD450 nm with a microplate reader, with OD 650 nm as reference. The control, a solution containing 0.2% DMSO medium, was as 0% inhibition. Raw data and standard curves were recorded. The four-parameter drug inhibition curve was plotted by XL-fit software and the inhibition rate of each compound was calculated, as shown in Table 1.
For orientation: ELISA stands for enzyme-linked immunosorbent assay.

For assay [2], the system named is MM.1S cells (myeloma cells). Kind of assay: Cell proliferation assay (MTS), MM.1S myeloma cells. The following applies: Homo sapiens, MM1.S, 72 hours, read-out: IC50 values of MMIS Inhibition. Type of assay: cell-based. The procedure:
MM.1S cells (myeloma cells) (ATCC, catalog number CRL-2974) were seeded at 1.8×10^3 per well to a 96-well culture plate containing […] (Gibco, catalog number A10491-01), and were incubated in an incubator for 24 hours at 37° C. under 5% CO2. Compounds were prepared as 20 mM stock solutions with DMSO (Sigma, catalog number D2650), and were diluted with the medium to the desired concentration (the final concentration of DMSO was 0.5%) and then were added to each well, incubated in an incubator for 72 hours at 37° C. under 5% CO2. Then, 20 μL MTS (Promega, catalog number G3581) was added to each well, and further incubated for 1-4 hours in an incubator at 37° C. under 5% CO2. OD490 nm was detected with OD650 nm as reference. The control, a solution containing 0.5% DMSO medium, was as 0% inhibition. GraphPad Prism 5 was used, slope was allowed to change to make the dose-effect curve and IC50 values were calculated, shown in table 2 for details.

Consider `[2H]C1(N2Cc3c(N)cc(F)cc3C2=O)CCC(=O)NC1=O` (racemic) [Compound I-01], for which the inhibition at 0.1 µM in assay [1] was greater than 50%.
Turning to `COc1cccc(CNc2cccc3c2CN(C2CCC(=O)NC2=O)C3=O)c1F` (stereo not drawn) [Compound A196, 3-(4-((2-fluoro-3-methoxybenzyl)amino)-1-oxoisoindolin-2-yl)piperidine-2,6-dione], in assay [2], the IC50 is less than 300 nM. Further, the inhibition at 0.1 µM in assay [1] was no less than 50%.
Take `COc1cccc(CNc2cc(F)cc3c2CN(C2CCC(=O)NC2=O)C3=O)c1F` (stereo not drawn) [Compound A318, 3-(6-fluoro-4-((2-fluoro-3-methoxybenzyl)amino)-1-oxoisoindolin-2-yl)-piperidine-2,6-dione]: the IC50 in assay [2] was no less than 300 nM. Also, in assay [1], the inhibition at 0.1 µM was less than 50%.
For `COc1ccc(CNc2cc(F)cc3c2CN(C2CCC(=O)NC2=O)C3=O)c(F)c1` (stereo not drawn) [Compound A319, 3-(6-fluoro-4-((2-fluoro-4-methoxybenzyl)amino)-1-oxoisoindolin-2-yl)-piperidine-2,6-dione], in that order: no less than 300 nM and less than 50%.
For `COc1ccc(F)c(CNc2cc(F)cc3c2CN(C2CCC(=O)NC2=O)C3=O)c1` (stereo not drawn) [Compound A320, 3-(6-fluoro-4-((2-fluoro-5-methoxybenzyl)amino)-1-oxoisoindolin-2-yl)-piperidine-2,6-dione], in that order: no less than 300 nM and less than 50%.
For the compound `O=C1CCC(N2Cc3c(OCc4ccc(CN5CCOCC5)cc4)cc(F)cc3C2=O)C(=O)N1` (stereo not drawn) [Compound A327, 3-(6-fluoro-4-((4-(morpholinomethyl)benzyl)oxy)-1-oxoisoindolin-2-yl)-piperidine-2,6-dione], the IC50 in assay [2] was less than 300 nM. The inhibition at 0.1 µM in assay [1] is less than 50%.
For `COc1ccc(F)c(COc2cccc3c2CN(C2CCC(=O)NC2=O)C3=O)c1` (stereo not drawn) [Compound A331, 3-(4-((2-fluoro-5-methoxybenzyl)oxy)-1-oxoisoindolin-2-yl)piperidine-2,6-dione], in that order: less than 300 nM and no less than 50%.
For the compound `O=C1CCC(N2Cc3c(OCc4ccccc4F)cccc3C2=O)C(=O)N1` (stereo not drawn) [Compound A336, 3-[4-(2-Fluoro-benzyloxy)-1-oxo-1,3-dihydro-isoindol-2-yl]-piperidine-2,6-dione], the IC50 in assay [2] is less than 300 nM.
For the compound `COc1ccc(F)c(CNc2cccc3c2CN([C@H]2CCC(=O)NC2=O)C3=O)c1` [Compound A340, (S)-3-(4-((2-fluoro-5-methoxybenzyl)amino)-1-oxoisoindolin-2-yl)piperidine-2,6-dione], the IC50 in assay [2] was less than 300 nM. Also, the inhibition at 0.1 µM in assay [1] is less than 50%.
Taken in the same sequence, the figures for `COc1ccc(F)c(CNc2cccc3c2CN([C@@H]2CCC(=O)NC2=O)C3=O)c1` [Compound A341, (R)-3-(4-((2-fluoro-5-methoxybenzyl)amino)-1-oxoisoindolin-2-yl)piperidine-2,6-dione] were less than 300 nM and less than 50%.
With `[2H][C@@]1(N2Cc3c(NCc4cc(OC)ccc4F)cccc3C2=O)CCC(=O)NC1=O` [Compound A342, (R)-3-deuterium-3-(4-((2-fluoro-5-methoxybenzyl)amino)-1-oxoisoindolin-2-yl)piperidine-2,6-dione], the IC50 in assay [2] is no less than 300 nM. Besides, in assay [1], the inhibition at 0.1 µM was less than 50%.
In the case of `[2H][C@]1(N2Cc3c(NCc4cc(OC)ccc4F)cccc3C2=O)CCC(=O)NC1=O` [Compound A343, (S)-3-deuterium-3-(4-((2-fluoro-5-methoxybenzyl)amino)-1-oxoisoindolin-2-yl)piperidine-2,6-dione], the IC50 in assay [2] was less than 300 nM. Besides, in assay [1], the inhibition at 0.1 µM is no less than 50%.
For the compound `O=C1CC[C@H](N2Cc3c(NCc4ccc(CN5CCOCC5)cc4)cccc3C2=O)C(=O)N1` [Compound A346, (S)-3-(4-((4-(morpholinomethyl)benzyl)amino)-1-oxoisoindolin-2-yl) piperidine-2,6-dione], the half-maximal inhibitory concentration (IC50) in assay [2] was less than 300 nM. Further, in assay [1], the inhibition at 0.1 µM was no less than 50%.

What is called IC50 is the point on the concentration scale where inhibition reaches its midpoint.
